Reference: US20060292221A1, “TIMED-RELEASE COMPRESSION-COATED SOLID COMPOSITION FOR ORAL ADMINISTRATION” (Astellas Pharma, Inc., priority 2000, published 2006)

Tests used:
[1] = Determination of percentage erosion of core tablet; format: physicochemical; conditions: 3 hours in water at 37° C.; for Percentage erosion (%) of compression-coated tablet containing Compound 1: core: 9 parts Compound 1 solid dispersion + 6 parts of the filler; for Percentage erosion (%) of compression-coated tablets containing acetaminophen: core: 5 parts acetaminophen + 10 parts of the filler
Experimental: A compression-coated tablet containing drug is made in accordance with the method of producing a timed-release compression-coated solid composition disclosed in the present invention, the tablet is moistened for 3 hours in water at 37° C., then the gelled part of the tablet is peeled off and the portion of the core tablet that has not eroded is removed. The core tablet is allowed to dry overnight in a dryer at 40° C. and weight is determined. The value obtained by subtracting dry weight from initial core tablet weight and dividing this by initial core weight is multiplied by 100 to calculate the percentage erosion.
The percentage erosion of the core tablet of both of the above-mentioned pharmaceutical preparations was determined in accordance with the previously described method of determining the percentage erosion of the core tablet.
Then 6 parts by weight of each filler were added to 9 parts by weight of the solid dispersion and mixed with a mortar and pestle. A core tablet of 150 mg per tablet with a diameter of 6.5 mm was obtained under compression force of 500 kg/punch using an oil press. Moreover, 10 parts by weight of each filler were separately added to 5 parts by weight acetaminophen (Yoshitomi Seiyaku) and mixed with a mortar and pestle and core tablets of 150 mg per tablet with a diameter of 6.5 mm were obtained under compression force of 500 kg/punch using an oil press. Furthermore, 75 mg polyethylene oxide (Polyox® WSR303) and 175 mg Macrogol 6000 were mixed with a mortar and pestle as the outer layer. […] This tablet was immersed for 3 hours in water at 37° C. and then the gelated part of the tablet was peeled off and the uneroded core was removed. The core was dried in a dryer overnight at 40° C. and then weighed. The percentage erosion of the core tablet was calculated from the dry weight and initial weight.

[2] = system: CYP3A4; test: Test Example 7: midazolam plasma concentration in dogs with concomitant ketoconazol; conditions: aqueous solution containing ketoconazol with midazolam
[3] = system: CYP3A4; test: Test Example 5: midazolam plasma concentration in dogs with concomitant Compound 1; conditions: Experiment 1, midazolam singular administration, oral 4 mg/dog, n=6
[4] = Solubility of each filler (amount of water needed to dissolve 1 g filler)

## N[C@@H](CC(=O)O)C(=O)O [Aspartic acid]
[1]
  Percentage erosion (%) of compression-coated tablet containing Compound 1: 1.4%

## CC(=O)N1CCN(c2ccc(OCC3COC(Cn4ccnc4)(c4ccc(Cl)cc4Cl)O3)cc2)CC1 (centres unmarked) [ketoconazol]
[2]
  increase of average midazolam AUC compared to midazolam singular administration: ≤ 4 times

## O=C(O)C(O)C(O)C(=O)O (centres unmarked) [Tartaric acid]
[1]
  Percentage erosion (%) of compression-coated tablet containing Compound 1: 65.7%

## OC[C@H]1O[C@@H](O[C@H]2[C@H](O)[C@@H](O)C(O)O[C@@H]2CO)[C@H](O)[C@@H](O)[C@H]1O (some centres unmarked) [Lactose]
[1]
  Percentage erosion (%) of compression-coated tablets containing acetaminophen: 7.6%
  Percentage erosion (%) of compression-coated tablet containing Compound 1: 24.0%

## O=C(O)CCC(=O)O [Succinic acid]
[1]
  Percentage erosion (%) of compression-coated tablets containing acetaminophen: 12.8%
  Percentage erosion (%) of compression-coated tablet containing Compound 1: 19.2%

## O=C1O[C@H]([C@@H](O)CO)C(O)=C1O [Ascorbic acid]
[1]
  Percentage erosion (%) of compression-coated tablet containing Compound 1: 32.4%

## Cc1ncc2n1-c1ccc(Cl)cc1C(c1ccccc1F)=NC2 [Midazolam, midazolam]
[3]
  Mean AUC of midazolam plasma concentration: 9.0 ± 6.0 ngh/ml

## O=C(O)CC(O)(CC(=O)O)C(=O)O [Citric acid]
[1]
  Percentage erosion (%) of compression-coated tablet containing Compound 1: 60.3%

## OC[C@H]1O[C@@](CO)(O[C@H]2O[C@H](CO)[C@@H](O)[C@H](O)[C@H]2O)[C@@H](O)[C@@H]1O [Sucrose]
[1]
  Percentage erosion (%) of compression-coated tablets containing acetaminophen: 56.1%
  Percentage erosion (%) of compression-coated tablet containing Compound 1: 48.4%
[4]; Table 3
  Solubility of filler: 1 mL
[4]; Table 4
  Solubility of filler: 1 mL

## O=C(O)CC(O)C(=O)O (centres unmarked) [Malic acid]
[1]
  Percentage erosion (%) of compression-coated tablets containing acetaminophen: 79.3%
  Percentage erosion (%) of compression-coated tablet containing Compound 1: 75.0%
[4]; Table 3
  Solubility of filler: 2 mL
[4]; Table 4
  Solubility of filler: 2 mL

## O=C(O)/C=C/C(=O)O [Fumaric acid]
[1]
  Percentage erosion (%) of compression-coated tablet containing Compound 1: 2.0%
[4]; Table 3
  Solubility of filler: > 10 mL
